From US11884662B2, “N-1 branched cycloalkyl substituted imidazo[4,5-c]quinoline compounds, compositions, and methods” (3M INNOVATIVE PROPERTIES COMPANY, priority 2018, dated 2024)

Assays:
[1] = tested on: Human dermal adult fibroblast cells; assay: Cell Viability Determination (resazurin); type: cell-based; conditions: human dermal adult fibroblasts, compound 200 micromolar, 24 hours, normalized to untreated vehicle control, n=3
Protocol: Cell Viability Determination
Each compound was individually dissolved in DMSO and then in Dulbecco's minimum essential cell culture medium (DMEM, Gibco, Life Technologies) containing 10% fetal bovine serum (Corning Life Sciences, Tewksbury, MA) and 1× antibiotic/antimycotic solution. The final DMSO concentration in a 200 micromolar compound concentration was 0.5%.
Human dermal adult fibroblast cells (ATCC, Manassas, VA) were seeded (7,500 cells/wells in a 96-well tissue culture polystyrene plate) in 100 microliters of DMEM cell culture medium containing 10% fetal bovine serum and 1× antibiotic/antimycotic solution. After approximately 18-24 hours of incubation in a humidified environment at 37° C. with 5% CO2, the wells were individually treated with one of the compounds in cell culture medium at a compound concentration of 200 micromolar or with 0.5% DMSO in cell culture medium as the vehicle (untreated) control. The cells were then incubated for 24 hours in a humidified environment at 37° C. with 5% CO2. Cell viability was determined using resazurin according to the procedure described by O'Brien, J. et al., European Journal of Biochemistry, 2000, 267(17): 5421-5426. Cell viability was normalized to the vehicle (untreated) cell control. In Table 14, the mean percent cell viability (n=3) is reported for the compounds of Examples 1, 2, 4, 5 and for 1-[(4-amino-1H-imidazo[4,5-c]quinoline-1-yl)methyl] cyclopentanol (the Comparative Example compound).

[2] = tested on: Human peripheral blood mononuclear cells (PBMC); assay: Cytokine Induction in Human Cells; type: cell-based; conditions: 21-24 hours culture, lowest concentration inducing at least 2× negative control; for MEC to Induce Cytokine IFN-alpha: IFN-alpha by ELISA; for MEC to Induce Cytokine IFN-gamma: IFN-gamma by multiplex bead assay; for MEC to Induce Cytokine TNF-alpha: TNF-alpha by multiplex bead assay
Protocol: Cytokine Induction in Human Cells
Whole blood was obtained from healthy human donors and collected by venipuncture into vacutainer tubes or syringes containing EDTA. Human peripheral blood mononuclear cells (PBMC) were purified from the whole blood by density gradient centrifugation. Histopaque 1077 (15 mL, Sigma, St. Louis, MO) was transferred to 6×50 mL sterile polypropylene conical tubes. The Histopaque was overlayed with 15-25 mL of blood diluted 1:2 in Hank's Balanced Salts Solution (HBSS) (Gibco, Life Technologies, Grand Island, NY). The tubes were then centrifuged at 1370 rpm for 30 minutes at 20° C., with no brake (400×g, GH 3.8A Rotor).
The interface (buffy coat) containing the PBMC was collected and placed in a new sterile 50 mL conical polypropylene centrifuge tube. The PBMC were mixed with an equal volume of HBSS (about 20 mL from the interface and about 20 mL of HBSS), and then centrifuged at 1090 rpm, 10 minutes, 20° C., with brake (270×g, GH 3.8A Rotor). After completing centrifugation, the cells were resuspended in 2-3 mL ACK Red blood cell lysis buffer (ammonium chloride potassium solution, Gibco, Life Technologies) and incubated for 2-5 minutes at 20° C. Next, HBSS (40 mL) was added to the cells, and the sample was centrifuged at 270×g for 10 minutes at 20° C. The supernatant was decanted, and the cell pellet was resuspended in 5 mL AIM V Medium (Gibco, Life Technologies). Cell aggregates and debris were removed by filtering the cell solution through a BD Falcon 70 micron nylon cell strainer (BD Biosciences, San Jose, CA).
The number of viable cells was determined by counting with a Miltenyi FACS instrument (Miltenyi Biotec Inc., San Diego, CA) or by using a hemacytometer. For determining cell viability with a hemacytometer, the cells were diluted 1/10 in 0.4% trypan blue and HBSS (specifically, 50 microliter of trypan blue+40 microliter of HBSS+10 microliter of cell solution were added to a microfuge tube and mixed). Ten microliters of the diluted cells were then applied to the hemacytometer, and the number of viable PBMC were determined by microscopy.
The PBMC sample was then resuspended in 96-well plates at a concentration of 8×10^5 cells/well in 0.1 mL of AIM-V medium. Each compound was solubilized in DMSO to create a 3 mM stock solution. The stock solution was then further diluted with AIM-V medium to prepare the serial dilutions. The diluted compound (100 microliters) was then transferred to the PBMCs to achieve a testing set with final compound concentrations of 30, 10, 3.3, 1.1, 0.37, 0.12, 0.04, 0.01 micromolar or a testing set with final compound concentrations of 100, 33.3, 11.1, 3.7, 1.2, and 0.4 micromolar. The plates also had both positive and negative controls. The negative control wells contained only AIM-V medium with no example compound. The positive control wells contained a control set of imiquimod serially diluted to concentrations of 30, 10, 3.3, 1.1, 0.37, 0.12, 0.04, 0.01 micromolar or a control set of imiquimod serially diluted to concentrations of 100, 33.3, 11.1, 3.7, 1.2, and 0.4 micromolar. The concentrations used in the control set were selected to match the concentrations used in the testing set. The plates were then cultured at 37° C./5% CO2 for 21-24 hours. Cell-free supernatants were harvested by centrifuging the 96-well plates at 2100 rpm, 23° C. for 10 minutes. Approximately 160 microliters of the supernatant was then stored in a NUNC 96-well plate, covered with the compression cap and stored at −80° C. until the cytokine analysis was done.
IFN-alpha cytokine levels (picograms/mL) were measured by ELISA (human IFN-alpha, pan specific, Mabtech, Cincinnati, OH). IFN-gamma and TNF-alpha levels (picograms/mL) were measured by multiplex bead assay (magnetic beads, R & D Systems Minneapolis, MN) according to the manufacturer's instructions. […]

Compound | Mean Percent Cell Viability [1] [%] | MEC to Induce Cytokine IFN-alpha [2] [µM] | MEC to Induce Cytokine IFN-gamma [2] [µM] | MEC to Induce Cytokine TNF-alpha [2] [µM]
Nc1nc2ccccc2c2c1ncn2CC1(O)CCCC1 [Comparative Example, 1-[(4-amino-1H-imidazo[4,5-c]quinoline-1-yl)methyl]cyclopentanol, reference compound] | 2.1 | 10 | 10 | 10
C[C@@H](n1cnc2c(N)nc3ccccc3c21)C1(O)CCCC1 [Example 1, 1-[(1R)-1-(4-aminoimidazo[4,5-c]quinolin-1-yl)ethyl]cyclopentanol] | 80 | 3.3 | 3.3 | 3.3
C[C@H](n1cnc2c(N)nc3ccccc3c21)C1(O)CCCC1 [Example 2, 1-[(1S)-1-(4-aminoimidazo[4,5-c]quinolin-1-yl)ethyl]cyclopentanol] | 81 | >30 | >30 | >30
C[C@@H](n1cnc2c(N)nc3ccccc3c21)C1(O)CC=CC1 [Example 3, 1-[(1R)-1-(4-aminoimidazo[4,5-c]quinolin-1-yl)ethyl]cyclopent-3-en-1-ol] |  | 3.3 | 3.3 | 3.3
CC[C@@H](n1cnc2c(N)nc3ccccc3c21)C1(O)CCCC1 [Example 4, 1-[(1R)-1-(4-aminoimidazo[4,5-c]quinolin-1-yl)propyl]cyclopentanol] | 86 | 1.1 | 1.1 | 0.37
CC[C@H](n1cnc2c(N)nc3ccccc3c21)C1(O)CCCC1 [Example 5, 1-[(1S)-1-(4-aminoimidazo[4,5-c]quinolin-1-yl)propyl]cyclopentanol] | 78 | >30 | >30 | >30
CC[C@@H](n1cnc2c(N)nc3ccccc3c21)C1(O)CCCCC1 [Example 6, 1-[(1R)-1-(4-aminoimidazo[4,5-c]quinolin-1-yl)propyl]cyclohexanol] |  | 1.2 | 1.2 | 1.2
